The values below come from patent US11033609B2, “Cyclic acetylcholinesterase C-terminal peptide in the treatment or prevention of cancer or metastasis” (priority 2014, dated 2021).

Holding throughout (type): cell-based, human
Data set [1] deals with KG1a cells. Put plainly: Transwell migration assay. As to conditions: for migration: 1 μM peptide, 24 h transwell, vs no peptide control. On the procedure: (§1) The acute myeloid leukaemia (AML) KG1a cell line was maintained in RPMI medium (Invitrogen) supplemented with 100 units/ml penicillin, 100 μg/ml streptomycin and 5% foetal calf serum. The multiple myeloma (MM) cell line JJN3, the two breast cancer cell lines (MCF7 and MDA-MB-231), the primary chronic lymphocytic leukaemia cells and normal B-lymphocytes were maintained in RPMI medium supplemented with 100 units/ml penicillin, 100 μg/ml streptomycin and 5% foetal calf serum. In addition, 100 μM of acetylcholine was added to the culture media to ensure that the availability of acetylcholine was not a limiting factor in these experiments.
(§2) In vitro migration assays were performed by using 6.0 μm pore size transwell migration plates (Costar, Corning, N.Y.). A total of 10^6 CLL cells in 500 μl of RPMI media were added to the upper chamber of the transwell insert. 100 ng/ml of CXCL12 was added to the baso-lateral chamber for all the cell types tested apart from KG1a cells. […] Instead, media containing 10% foetal calf serum was added to the baso-lateral chamber in these experiments. The plates were incubated for 24 h at 37° C. in 5% CO2 in the presence of the peptides (T15, T30, NBP-14 and the combination of T30+NBP-14) at concentrations between 0.1 nM and 10 μM. In addition, control cultures were carried out to which no peptide was added. Cells were subsequently harvested by centrifugation and were analysed by flow cytometry using an Accuri C6 flow cytometer (BD). None of the conditions tested induced significant cell death in the cultures. Migration of CLL cells was determined by counting cells that migrated to the lower (baso-lateral) chamber of the transwell plate and then expressed as a percentage of the total number of cells initially added to the upper (apical) chamber.

Data set [2] deals with primary CLL cells. Put plainly: Transwell migration assay. Conditions: for migration: primary CLL cells from 10 patients, 1 μM peptide, 24 h transwell. The method, then: as §1, §2
The test system of another data set is normal B-lymphocytes. Put plainly: Transwell migration assay. As to conditions: normal B-lymphocytes from healthy volunteers, 1 μM peptide, 24 h transwell. On the procedure:
as §1, §2

Data set [3] has as its system JJN3 cells. The experiment in a line: Transwell migration assay. As to conditions: for migration: JJN3, 1 μM peptide, 24 h transwell, vs no peptide control. On the procedure:
as §1, §2

Data set [4] concerns MCF7 cells. Put plainly: Transwell migration assay. Conditions: for migration: MCF7, 1 μM peptide, 24 h transwell, vs no peptide control. The method, then:
as §1, §2

In data set [5] the test system is primary CLL cells. Put plainly: Annexin V/propidium iodide in vitro apoptosis (cytotoxicity) assay. As to conditions: for apoptosis (cytotoxic effect): primary CLL cells derived from patients, 72 h. The method, then:
(§3) The acute myeloid leukaemia (AML) KG1a cell line was maintained in RPMI medium (Invitrogen) supplemented with 100 units/ml penicillin, 100 μg/ml streptomycin and 20% foetal calf serum. The multiple myeloma (MM) cell line H929, the two breast cancer cell lines (MCF7 and MDA-MB-231), the MEC-1 cells and the primary chronic lymphocytic leukaemia cells were maintained in RPMI medium supplemented with 100 units/ml penicillin, 100 μg/ml streptomycin and 10% foetal calf serum. The media used contained acetylcholine but after the initial set of experiments an additional 100 μM of acetylcholine was added to the culture media. Cells were subsequently aliquoted (10^6 cells/ml) into 24-well plates and were incubated at 37° C. in a humidified 5% carbon dioxide atmosphere for 72 h in the presence of the peptides (T15, T30, NBP-14 and the combination of T30+NBP-14) at concentrations between 0.1 nM and 1 μM. In addition, control cultures were carried out to which no peptide was added. Cells were subsequently harvested by centrifugation and were analysed by flow cytometry using the Annexin V assay or were counted using a Vi-Cell XR cell viability counter (Beckman Coulter).
(§4) Cultured cells were harvested by centrifugation and then resuspended in 195 of calcium-rich buffer. Subsequently, 5 μl of Annexin V (eBiosciences) was added to the cell suspension and cells were incubated in the dark for 10 mins prior to washing. Cells were finally resuspended in 190 μl of calcium-rich buffer together with 10 μl of propidium iodide. Apoptosis was assessed by dual-colour immunofluorescent flow cytometry using an Accuri C6 flow cytometer and data were analysed using CFlow software (BD Biosciences).
(§5) The in vitro drug sensitivity was measured using the Annexin V/propidium iodide assay. Comparison of the effects of each peptide alone or in combination in the various cell lines and primary cells are shown below.

Data set [6] relates to KG1a cells. The description is as above. Conditions: 72 h. The method, then:
as §3, §4, §5

For data set [7], the system named is H929 cells. Described as above. As to conditions: H929, 72 h. On the procedure: as §3, §4, §5
Data set [8] relates to MEC-1 cells. The data set is described as above. As to conditions: MEC-1, 72 h. On the procedure:
as §3, §4, §5

Data set [9] deals with MDA-MB-231 cells. The description is as above. As to conditions: MDA-MB-231, 72 h, peptides 0.1 nM to 1 μM. On the procedure:
as §3, §4, §5

Data set [10] deals with MCF7 cells. The data set is described as above. Conditions: MCF7, 72 h, peptides 0.1 nM to 1 μM. On the procedure: as §3, §4, §5
The test system of data set [11] is MDA-MB-231 cells. Put plainly: Transwell migration assay. As to conditions: for migration: MDA-MB-231, 1 μM peptide, 24 h transwell, vs no peptide control. The method, then: as §1, §2
The test system of data set [12] is normal B- and T-lymphocytes. Put plainly: Annexin V/propidium iodide apoptosis assay in normal cells. Conditions: B- and T-lymphocytes from normal healthy volunteers. The method, then:
as §4, §5
In order to assess the effects of the acetylcholinesterase-derived peptides on normal (non-malignant) cells, B- and T-lymphocytes were isolated from normal healthy volunteers (n=3).

Data set [13] relates to JJN3 cells. The experiment in a line: In vitro proliferation. Conditions: JJN3, concentrations of peptide >0.1 μM.
For data set [14], the system named is KG1a cells. The experiment in a line: In vitro proliferation (Vi-Cell XR viable cell count). Conditions: concentrations above 0.1 μM. On the procedure: as §3
(§6) Cultured cells were harvested by centrifugation and were then counted using a Vi-Cell XR cell viability counter. The number of viable cells in each culture was then expressed as a percentage of the viable cells in the control cultures (no peptide).

In data set [15] the test system is MDA-MB-231 cells. The data set is described as above. On the procedure: as §3, §6
Data set [16] relates to H929 cells. The data set is described as above. Conditions: H929, concentrations above 0.1 μM. On the procedure:
as §3, §6

Data set [17] has as its system MEC-1 cells. Described as above. Conditions: MEC-1, concentrations above 0.1 μM. On the procedure:
as §3, §6

Data set [18] relates to MCF7 cells. Described as above. As to conditions: MCF7, concentrations above 0.1 μM. On the procedure: as §3, §6
The test system of data set [19] is H929 cells. Put plainly: Transwell migration assay. As to conditions: H929, 1 μM NBP-14 vs baseline control. On the procedure: as §2
The test system of data set [20] is MEC-1 cells. Put plainly: Transwell migration assay. Conditions: MEC-1, 1 μM NBP-14 vs baseline control. The method, then:
as §2

Where a SMILES comes first, the peptide text is derived from it.

For the molecule “T15 (NQFDHYSKQDRCSDL; listed as Homo sapiens) [reference compound]”, the migration entry was “did not alter” in the data set with KG1a cells [1]; “did not significantly altered” in the data set on primary CLL cells [2]; “no significant effect” with normal B-lymphocytes; “no significant effect” with JJN3 cells [3]; “Neither the T15 nor the T30 peptide showed a significant effect” in the data set with MCF7 cells [4].
Rituximab [reference compound]: the “apoptosis (cytotoxic effect)” value in the data set with primary CLL cells [5] is recorded as “more pronounced dose-response”.
For `Nc1ccn([C@@H]2O[C@H](CO)[C@@H](O)[C@@H]2O)c(=O)n1` [Ara-C, reference compound], the “apoptosis (cytotoxic effect)” value in the data set on KG1a cells [6] was “dose-response at concentrations above 0.1 μM”.
Consider `Nc1nc(F)nc2c1ncn2[C@@H]1O[C@H](CO)[C@@H](O)[C@@H]1O` [fludarabine, reference compound], for which the “apoptosis (cytotoxic effect)” value in the data set on H929 cells [7] and with MEC-1 cells [8] was “induced a dose-response” each time.
Turning to `CSCC[C@@H]1NC(=O)[C@H](Cc2ccc(O)cc2)NC(=O)[C@H](CO)NC(=O)[C@H](CO)NC(=O)[C@H](Cc2c[nH]c3ccccc23)NC(=O)[C@H](CCCNC(=N)N)NC(=O)[C@H](Cc2c[nH]cn2)NC(=O)[C@H](Cc2ccccc2)NC(=O)[C@H](CCC(=O)O)NC(=O)[C@H](C)NC(=O)[C@H](CCCCN)NC(=O)[C@H](Cc2c[nH]c3ccccc23)NC(=O)[C@H](Cc2c[nH]cn2)NC(=O)[C@H](C(C)C)NC1=O` [NBP-14] (cyclo(AEFHRWSSYMVHWK)), the “apoptosis (cytotoxic effect)” value is listed as “modest apoptotic effects” with KG1a cells [6]; “modest apoptotic effects” in the data set on MDA-MB-231 cells [9]; “evidence of dose-response at concentrations above 0.1 μM” with primary CLL cells [5]; “modest apoptotic effects” in the data set with H929 cells [7]; “modest apoptotic effects” in the data set with MEC-1 cells [8]; “relatively increased sensitivity” in the data set with MCF7 cells [10]. Moreover, the apoptosis with primary CLL cells [5] (primary CLL cells, at 1 μM) is listed as around 20%. The migration entry in the data set on KG1a cells [1] was “significantly inhibited”; with MDA-MB-231 cells [11], “significantly inhibited”; with primary CLL cells [2] it was “significant reduction in migration”; in the data set on normal B-lymphocytes, “significant reduction”; with JJN3 cells [3], “significant inhibited”; in the data set with MCF7 cells [4], “little effect”. The migration entry in the data set on H929 cells [19] and in the data set on MEC-1 cells [20] was “significant reduction in cell migration” each time. Besides, the “migration (dose-response)” value with KG1a cells [1] (NBP-14 at concentrations ≥1 μM) is “significant decrease in migration”; with MDA-MB-231 cells [11] (MDA-MB-231, NBP-14 at concentrations ≥1 μM), “significant decrease in migration”; in the data set on JJN3 cells [3] (JJN3, NBP-14 at concentrations ≥1 μM), “significant decrease in migration”; in the data set with MCF7 cells [4] (MCF7, NBP-14 at concentrations ≥1 μM), “failed to show a significant reduction in migration”. Further, the “sensitivity of primary CLL cells to anti-migratory effect compared with normal B-cells” value with primary CLL cells [2] (primary CLL cells vs normal B-cells, 24 h) is listed as “significantly more sensitive”. Moreover, the “inhibition of migration compared with T30” value in the data set on JJN3 cells [3] (JJN3, 1 μM, 24 h) is “significantly greater extent”. Besides, the “toxicity in normal (non-malignant) cells” value in data set [12] was “lack of toxicity”. Besides, the proliferation entry in the data set on JJN3 cells [13] is on record as “anti-proliferative activity”; with KG1a cells [14] it was “reduced proliferation”; with MDA-MB-231 cells [15] (MDA-MB-231, peptide concentrations above 0.1 μM, compared with T15 control peptide), “significant reduction in proliferation”; in the data set with H929 cells [16] it was “reduced proliferation”; in the data set on MEC-1 cells [17] it was “reduced proliferation”; in the data set with MCF7 cells [18], “not as significant”.
“T30 (KAEFHRWSSYMVHWKNQFDHYSKQDRCSDL; listed as Homo sapiens) [reference compound]”: the migration result is listed as “did not alter” in the data set with KG1a cells [1]; “significantly inhibited” in the data set on MDA-MB-231 cells [11]; “did not significantly altered” in the data set with primary CLL cells [2]; “no significant effect” in the data set with normal B-lymphocytes; “significant inhibited” in the data set with JJN3 cells [3]; “Neither the T15 nor the T30 peptide showed a significant effect” in the data set on MCF7 cells [4]. Moreover, the “inhibition of migration compared with NBP-14” value in the data set with MDA-MB-231 cells [11] (MDA-MB-231, 1 μM, 24 h) was “significantly less effective”. In addition, the proliferation entry in the data set with MDA-MB-231 cells [15] (MDA-MB-231, sub-nanomolar concentrations) is on record as “increased proliferation”.
